Laboratory results from US20170205396A1, “SYSTEMS AND METHODS FOR CULTURING NEPHRON PROGENITOR CELLS” (Salk Institute for Biological Studies, priority 2016, published 2017).

Tests used:
[1] = test system: Six2-GFP+ NPCs; test: NPSR-based 3D aggregate culture of primary NPCs (srNPC derivation, long-term expansion, component withdrawal); format: cell-based, mouse; conditions: each of six components subtracted, period as short as 4 days
Source text: NPCs in mouse first appear around embryonic day 11.5 (E11.5) and mark the onset of nephrogenesis. In mice, NPCs exhaust shortly after birth, around postnatal day 3 (P3), after their last wave of differentiation into nephrons. Lineage tracing experiments have established SIX2 as a specific NPC marker. Available mouse strain with GFP cassette knocked in the Six2 locus (Six2^GCE) facilitates purification of Six2-GFP+ population from embryonic or neonatal mouse kidneys by fluorescence activated cell sorting (FACS). To screen for conditions conducive to in vitro expansion of NPCs Six2-GFP+ cells were isolated from E13.5 embryonic kidneys of Six2^GCE mice. Considering that in vivo NPCs are tightly packed together, it was hypothesized that the cell-cell contact might play a role in their survival and proliferation. Thus, to better preserve the native microenvironment, sorted Six2-GFP+ NPCs were transferred into U-bottom low-attachment 96-well plates to form 3D aggregates. In base medium supplemented with serum alone NPC aggregates could form.
The optimal condition supportive of NPC self-renewal in vitro was determined by screening growth factors and chemical inhibitors for known signaling pathways implicated in regulating NPC survival, self-renewal, and differentiation in vivo as well as other signaling pathways that were not previously reported. Cell viability, growth rate, and GFP signal were considered among other criteria. Through successive testing a novel culture condition was established containing a cocktail of BMP7, FGF2, Heparin, Y27632, LIF, and CHIR99021 that promotes long-term in vitro expansion of Six2-GFP+ NPCs with high purity (it was named NPC self-renewal medium, or NPSR medium) (FIG. 1A). Of note is that isolated Six2+ NPCs have been propagated in this culture for more than one year and more than 70 passages. The established NPC lines were designated as self-renewable NPCs (srNPCs) due to their unlimited proliferative potential. srNPCs grow fast under this culture condition. Starting with 3,000 cells, after 5 days, the aggregate can grow to around 1 mm in diameter containing around 100,000 cells (FIG. 1B and FIG. 1C). srNPC aggregates maintain stable growth rate after long term passages with 6 to 7 doublings per passage (FIG. 1D). […] Moreover, similar results were obtained when SIX2 and other NPC marker gene expressions were quantified by immunostaining: SIX2+ (˜96.2%), SALL1+ (˜99.1%), CITED1+ (˜96.1%) (FIG. 1E). […] To this end each of the six components were subtracted from NPSR medium and evaluated the effects on srNPCs.
It was determined whether NPSR culture could also support the derivation of srNPCs from other developmental stages harboring Six2+ populations. […]

[2] = test system: nephron organoids; test: Mouse nephron organoid generation and chemical treatment; format: cell-based
Source text: Given kidney's primary function in plasma filtration and metabolic homeostasis, drug-induced nephrotoxicity is common and constitutes a major consideration during the development of new therapeutic drugs. Currently, drug toxicity screening is largely performed using monolayer cultured immortalized kidney cells. Cells in monolayer culture, however, lack an intact 3D nephron structure and are thus limited for accurate prediction of a drug's effect on kidney function. Another layer of complexity during drug screening using immortalized cell lines relates to genetic abnormalities. […] A screen was done to determine conditions that allow efficient organoid generation from srNPCs. […] Committed srNPCs were designated as fate-specified NPCs or FS-NPCs. FS-NPCs could further differentiate autonomously and form nephron organoids marked by numerous tubular formations (FIG. 3B). Whole-mount staining of obtained nephron organoids identified numerous PODXL+/WT1+ glomeruli, LTL+ proximal tubules and CDH1+ distal tubules. The transition from srNPCs via FS-NPCs to nephron organoids was rapid (as short as 7 days), highly efficient and composed of all major nephron segments representing the glomeruli and proximal and distal tubules.
In vivo, NPCs first differentiate to pretubular aggregates (PTA) and renal vesicles (RV) before further maturation to form the segmented renal tubules. To determine which stage FS-NPCs likely correspond to, the expression of common PTA and RV markers was checked. […] Immunofluorescence studies confirmed protein expression of both PTA/RV markers (LHX1 and PAX8) and NPC markers (SIX2 and SALL1) in FS-NPCs.
The utility of srNPC-derived organoids for renal toxicity testing was determined. […]
CD2AP is an important interacting protein for NEPHRIN and PODOCIN and is necessary for proper glomerulus functions and mutations in CD2AP are associated with sporadic nephrotic syndrome and focal segmental glomerulosclerosis (FSGS). […] Consistent with the hypothesis, Cd2ap was expressed in wild type (#2) while barely detected in gene-disrupted (#1 and #3) organoids (FIG. 3E). […]

Compound	effect of removal of the component from NPSR medium on srNPCs [1]	also measured
C[C@@H](N)[C@H]1CC[C@H](C(=O)Nc2ccncc2)CC1 [Y27632]	slower cell growth	–
Heparin	slower cell growth	–
C[C@H](NC(=O)Cc1cc(F)cc(F)c1)C(=O)N[C@H](C(=O)OC(C)(C)C)c1ccccc1 [DAPT]	–	effect on proximal tubule and glomerulus differentiation ([2]; 5 μM, day 2 to day? (FS-NPCs to nephron organoids)): both proximal tubules and glomerulus differentiation were inhibited
FGF2: fibroblast growth factor, NPSR medium component	slower cell growth	–
lipopolysaccharide [LPS]	–	glomerulus injury in nephron organoids (morphology, active Caspase 3) ([2]; 20 μg/ml, two-day exposure, day 7 organoids): specific damages in the glomerulus; apoptotic cells (active Caspase 3) in Cd2ap-deficient versus wild type organoids ([2]; low dosage 10 μg/ml, two days, tetO srNPC lines): accumulated more apoptotic cells than the wild type
LIF: leukemia inhibitory factor protein, an interleukin 6 class cytokine	loss of GFP signal	–
